Experiment [1] can be described thus: Bone calcium mobilization (serum calcium) in vitamin D-deficient rats. It is filed as in vivo, Sprague-Dawley rats. To be noted: ip. Here is the method: (§1) Male, weanling Sprague-Dawley rats were placed on Diet 11 (0.47% Ca) diet+AEK oil for one week followed by Diet 11 (0.02% Ca)+AEK oil for 3 weeks. The rats were then switched to a diet containing 0.47% Ca for one week followed by two weeks on a diet containing 0.02% Ca. Dose administration began during the last week on 0.02% calcium diet. Four consecutive ip doses were given approximately 24 hours apart. Twenty-four hours after the last dose, blood was collected from the severed neck and the concentration of serum calcium determined as a measure of bone calcium mobilization. The first 10 cm of the intestine was also collected for intestinal calcium transport analysis using the everted gut sac method.

In a further experiment the test system is HL-60 cells. In words: HL-60 cell differentiation (nitro blue tetrazolium reduction). It counts as cell-based, Human. The following applies: for EC50: HL-60 differentiation into monocytes, FIG. 2. The protocol: The study drugs were dissolved in ethanol and the concentrations determined using UV spectrophotometry. Serial dilutions were prepared so that a range of drug concentrations could be tested without changing the final concentration of ethanol (≦0.2%) present in the cell cultures.
Human promyelocytic leukemia (HL60) cells were grown in RPMI-1640 medium containing 10% fetal bovine serum. The cells were incubated at 37° C. in the presence of 5% CO2.
HL60 cells were plated at 1.2×10^5 cells/ml. Eighteen hours after plating, cells in duplicate were treated with drug. Four days later, the cells were harvested and a nitro blue tetrazolium reduction assay was performed (Collins et al., 1979; J. Exp. Med. 149:969-974). The percentage of differentiated cells was determined by counting a total of 200 cells and recording the number that contained intracellular black-blue formazan deposits. Verification of differentiation to monocytic cells was determined by measuring phagocytic activity (data not shown).

Experiment [2] concerns 24-hydroxylase (24Ohase) gene promoter. Description: In vitro transcription assay, luciferase reporter in ROS 17/2.8 (bone) cells. It is filed as cell-based. To be noted: ROS 17/2.8 cells, 24Ohase promoter-luciferase; FIG. 3; read-out: EC50, transcriptional activity in bone cells (24-hydroxylase gene). The protocol: Transcription activity was measured in ROS 17/2.8 (bone) cells that were stably transfected with a 24-hydroxylase (24Ohase) gene promoter upstream of a luciferase reporter gene (Arbour et al., 1998). Cells were given a range of doses. Sixteen hours after dosing the cells were harvested and luciferase activities were measured using a luminometer.
RLU=relative luciferase units.

The nature of experiment [3]: Intestinal calcium transport, everted gut sac method, vitamin D-deficient rats. It is filed as in vivo, Sprague-Dawley rats. The following applies: ip, FIGS. 5A and 5B. The protocol:
as §1

For the molecule `C=C1/C(=C\C=C2/CCC[C@]3(C)[C@@H]([C@H](C)CCCC(C)(C)O)CC[C@@H]23)C[C@@H](O)C[C@@H]1O` [1,25(OH)2D3, 1α,25-dihydroxyvitamin D3, reference compound], the “serum calcium levels (bone calcium mobilization)” value in experiment [1] (all dosages, rats on 0.02% Ca diet, FIGS. 4A and 4B) is recorded as “increased serum calcium levels at all dosages”. Moreover, the half-maximal effective concentration (EC50) (as a rule, the concentration needed to bring the measured effect to its halfway point) in the experiment on HL-60 cells was 2 nM; in experiment [2], 0.2 nM. For the same molecule, in experiment [3] (260 pmol/day), the intestinal calcium transport entry is reported as “promotes a significant increase”.

Take `C=C1[C@H](O)CC(=C/C=C2\CCC[C@@]3(C)C2CC[C@@H]3[C@@H](C)CCC[C@@H](C)O)C[C@H]1O` (stereo partly drawn) [SR1, 2-methylene-(20S,25R)-19,26-dinor-1α,25-dihydroxyvitamin D3]: the “bone calcium mobilization (serum calcium)” value in experiment [1] (260 pmol/day for 4 consecutive days, rats on 0.02% Ca diet) is “did not result in mobilization of bone calcium”; in experiment [1] (7020 pmol/day, rats on 0.02% Ca diet), “without any substantial effect”. The “potency in mobilizing bone calcium relative to the native hormone (times less potent)” value in experiment [1] (versus 1,25(OH)2D3, rats) was “approximately 30 times”. Moreover, the results for the 50% effective concentration (EC50) (with HL-60 cells (Homo sapiens); in experiment [2]) were 0.1 nM and 0.01 nM, respectively. Besides, the “potency on HL-60 cell differentiation relative to 1,25(OH)2D3 (times more potent)” value in the experiment on HL-60 cells (versus 1,25(OH)2D3) is “about 10 times”. The values for the intestinal calcium transport entry in experiment [3] (260 pmol/day) and in experiment [3] (7020 pmol/day) were “promotes intestinal calcium transport only slightly” and “significant intestinal calcium transport activity was recorded”, respectively.

The record behind these values is patent US8609643B2, “2-methylene-(20S,25R)-19,26-dinor-vitamin D analogs” (Wisconsin Alumni Research Foundation, priority 2007, dated 2013).
